Source: patent US20170197935A1, “INHIBITORS OF DNA GYRASE FOR THE TREATMENT OF BACTERIAL INFECTIONS” (Vitas Pharma Research Private Limited, priority 2012, published 2017)
Values after ≈ are worked out from the molar mass of the structure shown. Like-named read-outs stand apart in the source and are kept apart here.

Legend:
[1] = molecular target: T1, ciprofloxacin resistant recombinant Gyrase protein (with mutation S83L) (Escherichia coli, UniProt P0AES4+P0AES6, S83L); experiment: Gyrase supercoiling assay with ciprofloxacin resistant Gyrase (S83L); assay type: biochemical; details: read-out: Target specificity: % inhibition of supercoiling activity
T1 construct: purchased Inspiralis
Experimental: The enzyme is incubated with the substrate (relaxed DNA) in the presence and absence of compounds for 1 hour at 37° C. and the DNA is run on a gel at low voltage for several hours. The amount of supercoiled DNA is quantified using DNA imaging and quantification software (Image Lab). The activity of the enzyme is proportional to the amount of supercoiled form detected.

[2] = test system: Methicillin resistant Staphylococcus aureus (ATCC 33591); experiment: MIC by microbroth dilution, MRSA ATCC 33591; assay type: cell-based
Experimental: (§1) Shown below are the microbiological activities of representative compounds of Formula I of the invention. The compounds were tested by the microbroth dilution method (National committee for Clinical Laboratory Standards, 2011, M07-08) and the Minimum Inhibitory Concentration (MIC) was determined.
(§2) Analysis of microbiological activity of compounds shown below are the microbiological activities of representative compounds of Formula II of the invention. The compounds were tested by the microbroth dilution method as per the reference in Example 1.

[3] = test system: E. faecalis ATCC 51299; experiment: MIC by microbroth dilution, E. faecalis ATCC 51299; assay type: cell-based; details: Enterococcus faecalis, ATCC51299, Formula II compounds, read-out: Minimum Inhibitory Concentration (MIC) E. faecalis ATCC 51299
Experimental: as §1, §2

[4] = test system: E. coli (ATCC 25922); experiment: MIC by microbroth dilution, E. coli ATCC 25922; assay type: cell-based; details: Escherichia coli
Experimental: as §1, §2

[5] = test system: Pseudomonas ATCC 27853; experiment: MIC by microbroth dilution, Pseudomonas ATCC 27853; assay type: cell-based; details: ATCC27853, Formula II compounds, read-out: Minimum Inhibitory Concentration (MIC) Pseudomonas ATCC 27853
Experimental: as §1, §2

[6] = test system: Acinetobacter BAA747; experiment: MIC by microbroth dilution, Acinetobacter BAA747; assay type: cell-based; details: Formula II compounds, read-out: Minimum Inhibitory Concentration (MIC) Acinetobacter BAA747
Experimental: as §1, §2

[7] = test system: Moraxella catarrhalis (ATCC 8176); experiment: MIC by microbroth dilution, Moraxella catarrhalis ATCC 8176; assay type: cell-based; details: ATCC8176
Experimental: (§3) Shown below are the microbiological activities of representative compounds of Formula I of the invention. The compounds were tested by the microbroth dilution method (National committee for Clinical Laboratory Standards, 2011, […]-08) and the Minimum Inhibitory Concentration (MIC) was determined.

[8] = test system: Staphylococcus aureus (ATCC 29213); experiment: MIC by microbroth dilution, Staphylococcus aureus ATCC 29213; assay type: cell-based; details: ATCC29213
Experimental: as §3

[9] = test system: K. pneumoniae (ATCC 700603); experiment: MIC by microbroth dilution, K. pneumoniae ATCC 700603; assay type: cell-based; details: Klebsiella pneumoniae, ATCC700603, Formula I compounds
Experimental: as §1, §2

[10] = test system: Enterococcus faecalis (ATCC 29212); experiment: MIC by microbroth dilution, Enterococcus faecalis ATCC 29212; assay type: cell-based; details: ATCC29212
Experimental: as §3

[11] = test system: Streptococcus pneumoniae (ATCC 6301); experiment: MIC by microbroth dilution, Streptococcus pneumoniae ATCC 6301; assay type: cell-based; details: ATCC6301
Experimental: as §3

[12] = molecular target: T2, E. coli Gyrase (Escherichia coli, UniProt P0AES4+P0AES6); experiment: in vitro Gyrase supercoiling assay (Inspiralis kit); assay type: biochemical; details: 1 hour at 37° C., read-out: % inhibition of DNA supercoiling activity; for inhibition at 0.1 µM: 0.1 μM compound; for inhibition at 1 µM: 1 μM compound
T2 construct: purchased Inspiralis
Experimental: To test for target specificity, the activity of compounds was evaluated in an in vitro Gyrase assay using recombinant Gyrase protein as per the instructions of the assay kit (Inspiralis). The assay measures the ability of E. coli Gyrase to convert relaxed plasmid DNA into the supercoiled form. The enzyme is incubated with the substrate (relaxed DNA) in the presence and absence of compounds for 1 hour at 37° C. and the DNA is run on a gel at low voltage for several hours. The gel is then stained with Ethidium bromide and DNA in the different forms is quantified using DNA imaging and quantification software (Image Lab). The activity of the enzyme is proportional to the amount of supercoiled form detected.

[13] = Formula II compounds, read-out: Minimum Inhibitory Concentration (MIC) MRSA ATCC 33591
[14] = ATCC25922, Formula II compounds, read-out: Minimum Inhibitory Concentration (MIC) E. coli ATCC 25922
[15] = ATCC33591, Formula I compounds, read-out: MIC Methicillin resistant Staphylococcus aureus (ATCC 33591)
[16] = ATCC25922, Formula I compounds, read-out: MIC E. coli (ATCC 25922)

| MIC [2, 13] | MIC [3] | MIC [4, 14] | MIC [5] | MIC [6] | SMILES | inhibition at 0.1 µM [1] | inhibition at 1 µM [1] | MIC [7] | MIC [8] | MIC [9] | MIC [2, 15] | MIC [4, 16] | MIC [10] | MIC [11] | inhibition at 0.1 µM [12] | inhibition at 1 µM [12] |
| --- | --- | --- | --- | --- | --- | --- | --- | --- | --- | --- | --- | --- | --- | --- | --- | --- |
| 0.5 µg/mL (≈ 1.13 µM) | – | 2 µg/mL (≈ 4.54 µM) | > 32 µg/mL | 8 µg/mL (≈ 18.2 µM) | COc1ccc2ncc(=S)n(CCN3CCC(NCc4ccc(C)c(F)c4)CC3)c2c1 [VT-03-00126] | – | – | – | – | – | – | – | – | – | – | – |
| 1 µg/mL (≈ 2.23 µM) | 1 µg/mL (≈ 2.23 µM) | 2 µg/mL (≈ 4.47 µM) | 32 µg/mL (≈ 71.5 µM) | 2 µg/mL (≈ 4.47 µM) | COc1ccc2ncc(=S)n(CCN3CCC(NCc4ccc(C)c(C#N)c4)CC3)c2c1 [VT-03-00132] | – | – | – | – | – | – | – | – | – | – | – |
| 0.25 µg/mL (≈ 0.572 µM) | 0.25 µg/mL (≈ 0.572 µM) | 0.25 to 1 µg/mL (≈ 0.572 to 2.29 µM) | 16 µg/mL (≈ 36.6 µM) | 0.25 µg/mL (≈ 0.572 µM) | Cc1ccc(CNC2CCN(CCn3c(=O)cnc4ccc(Cl)nc43)CC2)cc1C#N [VT-03-00131] | – | – | – | – | – | – | – | – | – | – | – |
| 1 µg/mL (≈ 2.21 µM) | 2 µg/mL (≈ 4.43 µM) | 16 µg/mL (≈ 35.4 µM) | – | – | CNC(=O)c1ccc2ncc(=O)n(CCN3CCC(NCc4ccc(C)c(F)c4)CC3)c2c1 [VT-03-00109] | – | – | – | – | – | – | – | – | – | – | – |

The next lines start with the compound.

| SMILES | MIC [2, 13] | MIC [3] | MIC [4, 14] | MIC [5] | MIC [6] | inhibition at 0.1 µM [1] | inhibition at 1 µM [1] | MIC [7] | MIC [8] | MIC [9] | MIC [2, 15] | MIC [4, 16] | MIC [10] | MIC [11] | inhibition at 0.1 µM [12] | inhibition at 1 µM [12] |
| --- | --- | --- | --- | --- | --- | --- | --- | --- | --- | --- | --- | --- | --- | --- | --- | --- |
| Cc1ccc(CNC2CCN(CCn3c(=O)cnc4ccc(Cl)nc43)CC2)cc1F [VT-03-00111] | 0.125 µg/mL (≈ 0.291 µM) | 0.5 µg/mL (≈ 1.16 µM) | 1 µg/mL (≈ 2.33 µM) | – | – | 90.4% | 87.6% | – | – | – | – | – | – | – | – | – |
| COc1ccc2ncc(=O)n(CCN3CCC(NCc4ccc(C)c(F)c4)CC3)c2n1 [VT-03-00101] | 4 µg/mL (≈ 9.4 µM) | 16 µg/mL (≈ 37.6 µM) | > 16 µg/mL | – | – | 95.9% | 92.3% | – | – | – | – | – | – | – | – | – |
| COc1ccc2ncc(OCCN3CCC(NCc4ccc(C)c([N+](=O)[O-])c4)CC3)nc2c1 [VT-03-00062a] | – | – | – | – | – | – | – | 2 µg/mL (≈ 4.43 µM) | 0.5 µg/mL (≈ 1.11 µM) | > 32 µg/mL | 1 µg/mL (≈ 2.21 µM) | 4 µg/mL (≈ 8.86 µM) | 4 µg/mL (≈ 8.86 µM) | 0.5 µg/mL (≈ 1.11 µM) | – | – |
| Cc1ccc(CNC2CCN(CCn3c(=O)cnc4ncc(C#N)cc43)CC2)cc1[N+](=O)[O-] [VT-03-00119] | 4 µg/mL (≈ 8.94 µM) | 16 µg/mL (≈ 35.8 µM) | 8 µg/mL (≈ 17.9 µM) | > 32 µg/mL | 8 µg/mL (≈ 17.9 µM) | – | – | – | – | – | – | – | – | – | – | – |
| COc1ccc2ncc(C#N)c(CCN3CCC(NCc4ccc(F)c([N+](=O)[O-])c4)CC3)c2c1 [VT-03-00048] | – | – | – | – | – | – | – | 1 µg/mL (≈ 2.16 µM) | 0.12 µg/mL (≈ 0.259 µM) | > 32 µg/mL | 0.5 µg/mL (≈ 1.08 µM) | 8 µg/mL (≈ 17.3 µM) | 4 µg/mL (≈ 8.63 µM) | 0.5 µg/mL (≈ 1.08 µM) | 97.5% | 97.3% |
| COc1ccc2ncc(C#N)c(CCN3C[C@@H]4C[C@H]3CN4CNc3ccc4c(c3)OCCO4)c2c1 [VT-03-00028] | – | – | – | – | – | – | – | 4 µg/mL (≈ 8.48 µM) | 0.25 µg/mL (≈ 0.53 µM) | > 32 µg/mL | 0.5 µg/mL (≈ 1.06 µM) | > 32 µg/mL | 1 µg/mL (≈ 2.12 µM) | 0.25 µg/mL (≈ 0.53 µM) | – | – |
| COc1ccc2ncc(C#N)c(CCN3C4CCC3CC(NCc3ccc5c(c3)NC(=O)CS5)C4)c2c1 (centres unmarked) [VT-03-00026] | – | – | – | – | – | – | – | 2 µg/mL (≈ 3.89 µM) | 2 µg/mL (≈ 3.89 µM) | 64 µg/mL (≈ 125 µM) | 4 µg/mL (≈ 7.79 µM) | 32 µg/mL (≈ 62.3 µM) | 8 µg/mL (≈ 15.6 µM) | 1 µg/mL (≈ 1.95 µM) | – | – |
| COc1ccc2ncc(C#N)c(CCN3CCC(NCc4cc5c(c([N+](=O)[O-])c4)OCO5)CC3)c2c1 [VT-03-00077] | – | – | – | – | – | – | – | 0.25 µg/mL (≈ 0.511 µM) | 0.06 µg/mL (≈ 0.123 µM) | > 16 µg/mL | 0.12 µg/mL (≈ 0.245 µM) | 2 µg/mL (≈ 4.09 µM) | 1 µg/mL (≈ 2.04 µM) | 0.12 µg/mL (≈ 0.245 µM) | 38.8% | 88.5% |
| COc1ccc2ncc(C#N)c(CCN3CCC(NC(=O)c4ccc([N+](=O)[O-])c(F)c4)CC3)c2c1 [VT-03-00055] | – | – | – | – | – | – | – | > 32 µg/mL | 1 µg/mL (≈ 2.09 µM) | > 32 µg/mL | 4 µg/mL (≈ 8.38 µM) | > 32 µg/mL | 0.25 µg/mL (≈ 0.524 µM) | 0.03 µg/mL (≈ 0.0628 µM) | 52.7% | 71% |
